Measurements as given in patent US8618286B2, “Benzoxazines, benzothiazines, and related compounds having NOS inhibitory activity” (NeurAxon, Inc., priority 2008, dated 2013).
Counter-ions that a name gives are not always drawn.

Columns and labels:
Format in all cases: biochemical
[1] = molecular target: Nitric oxide synthase (neuronal, human recombinant) nNOS (Homo sapiens (Human), UniProt P29475); test: Human nNOS enzyme assay ([3H]-L-arginine to L-citrulline conversion); conditions: for Selectivity eNOS/nNOS: ratio of human eNOS IC50 to human nNOS IC50; for IC50: recombinant human nNOS
Method: (§1) nNOS (Human), eNOS (Human) and iNOS (Human) Enzyme Assay
(§2) Primary stock solutions of test compounds at a concentration of 6 mM were prepared from the 2 to 5 mg powder. The primary stock solutions of each test compound were prepared freshly in distilled water on the day of study to obtain a final concentration of 6 mM. For determination of IC50 values, 12 test compound concentrations were prepared as 3-fold serial dilutions. Concentration range of test compound utilized for nNOS were 0.001 to 300 μM and for eNOS were 0.003 to 1000 μM. The vehicle of the test compound or inhibitor was used as blank control. For non-specific activity, 100 μM L-NMMA was used. Runs using the IC50 concentration of L-NAME were done in parallel as controls.
(§3) All incubations are performed in duplicate
(§4) The reaction mixture was prepared on ice by adding the following components with a micropipette to a polypropylene microcentrifuge tube: • 10 μL of test compound, inhibitor or control (vehicle or L-NMMA) solution; • 25 μL of Reaction Buffer {25 mM Tris-HCl, 0.6 μM BH4, 0.2 μM FMN, 0.2 μM FAD}; • 5 μL of 10 mM NADPH solution {1 mM} (freshly prepared in 10 mM Tris-HCl (pH 7.4); • 5 μL of 6 mM CaCl2 {600 W}; • 5 μL of 1 mM Calmodulin {100 W}; and • 5 μL of 0.02 μg/μL nNOS or 0.12 μg/μL eNOS.
(§5) The above reaction mixture was pre-incubated at room temperature for 15 mins.
(§6) The reaction was started by the addition of the substrate (in 5 μL containing 1 μCi of [^3H]-L-Arginine+2.5 μM of unlabeled L-Arginine) to the reaction mixture. Total reaction volume is 60 μL.
(§7) The reaction was mixed using a vortex mixer and incubate the above reaction mixture at 37° C. in an incubator for 30 minutes.
(§8) To stop the reaction, 400 μL of ice-cold Stop Buffer was added at the end of the incubation period.
(§9) The reaction was then mixed using a vortex mixer, and the reaction samples were transferred to spin cups, which were centrifuged using a microcentrifuge, at 13,000 rpm for 30 sec. at room temperature.
(§10) The spin cups were removed from the holder, 450 μL of eluate (containing the unbound L-citrulline) were transferred to scintillation vials. 3 mL of scintillation fluid were added and the radioactivity was quantified in a liquid scintillation counter.
(§11) Data was analyzed using a Sigmoidal dose-response (variable slope) curve to determine the IC50 value of the test compound. Y=Bottom+(Top−Bottom)/(1+10^((Log IC50−X)*Hill Slope))

[2] = molecular target: Nitric oxide synthase (endothelial, human recombinant) eNOS (Homo sapiens (Human), UniProt P29474); test: Human eNOS enzyme assay ([3H]-L-arginine to L-citrulline conversion)
Method: as §1, §2, §3, §4, §5, §6, §7, §8, §9, §10, §11

[3] = molecular target: Recombinant human inducible NOS (iNOS) (Homo sapiens (Human), UniProt P35228); test: Human iNOS enzyme assay (Protocol 1 or Protocol 2, radiometric)
Method: The human iNOS assay was carried by either one of the two protocols as described herein:
Recombinant human inducible NOS (iNOS) was produced in Baculovirus-infected Sf9 cells (ALEXIS). In a radiometric method, NO synthase activity was determined by measuring the conversion of [^3H]L-arginine to [^3H]L-citrulline. To measure iNOS, 10 μL of enzyme was added to 100 μL of 100 mM HEPES, pH=7.4, containing 1 mM CaCl2, 1 mM EDTA, 1 mM dithiothreitol, 1 μM FMN, 1 μM FAD, 10 μM tetrahydrobiopterin, 120 μM NADPH, and 100 nM CaM.
To measure enzyme inhibition, a 15 μL solution of a test substance was added to the enzyme assay solution, followed by a pre-incubation time of 15 min at RT. The reaction was initiated by addition of 20 μL L-arginine containing 0.25 μCi of [^3H] arginine/mL and 24 μM L-arginine. The total volume of the reaction mixture was 150 μL in every well. The reactions were carried out at 37° C. for 45 minutes, The reaction was stopped by adding 20 μL of ice-cold buffer containing 100 mM HEPES, 3 mM EGTA, 3 mM EDTA, pH=5.5. [^3H]L-citrulline was separated by DOWEX (ion-exchange resin DOWEX 50 W×8-400, SIGMA) and the DOWEX was removed by spinning at 12,000 g for 10 min in the centrifuge. An aliquot (70 μL) of the supernatant was added to 100 μL of scintillation fluid, and the samples were counted in a liquid scintillation counter (1450 Microbeta Jet, Wallac). Specific NOS activity was reported as the difference between the activity recovered from the test solution and that observed in a control sample containing 240 mM of the inhibitor L-NMMA. All assays were performed at least in duplicate. Standard deviations are 10% or less.
Primary stock solutions of each test compound were prepared in distilled water on the day of study to obtain a final concentration of 6 mM. For the determination of IC50 values, 11 test compound concentrations were prepared as 3-fold serial dilutions. Test compounds were tested in the iNOS assay at a concentration of 1000 μM to 0.0169 μM. The vehicle of the test compound or inhibitor, distilled water, was used as blank control. For non-specific activity, 100 μM L-NMMA was run in parallel as a control.
All incubations were performed in duplicate
The reaction mixture was prepared on ice by the addition of the following components to the appropriate well of a 1.0 mL 96-well polypropylene plate:
10 μL of test compound, reference inhibitor, or control (vehicle or L-NMMA) solution;
25 μL of Reaction Buffer (50 mM Tris-HCl, 6 μM BH4, 2 μM FMN, 2 μM FAD);
5 μL of 10 mM NADPH solution;
5 μL of 1 μM Calmodulin; and
The reaction mixture was pre-incubated at room temperature for 15 minutes. Following this pre-incubation, the reaction was initiated by the addition of 5 μL of the substrate L-arginine (1 μCi of [^3H]-L-Arginine+30 μM of unlabeled L-Arginine) to the reaction mixture. The total reaction volume was 60 μL. The assay plate containing the reaction mixtures was sealed and incubated at 37° C. for 30 minutes. At the end of this incubation period, 400 μL of ice-cold Stop Buffer (the EDTA in the Stop Buffer chelates all of the available calcium) was added to each well to stop the reaction. 100 μL of equilibrated resin pH 5.5 was added to each of the assay wells. The reaction samples were vortexed and transferred to spin cups, after-which they were centrifuged at 13,000 rpm for 30 sec. The spin cups were removed from the holder and […] (containing the unbound L-citrulline) were added to the appropriate wells of a 96-well liquid scintillation plate. 175 μL of scintillation fluid were also added to each well. The plate was sealed, and radioactivity was quantitated using a Microbeta liquid scintillation counter.
Data were analyzed using a Sigmoidal dose-response (variable slope) curve to determine the IC50 value of the test compound. Y=Bottom+(Top−Bottom)/(1+10^((Log IC50−X)*Hill Slope))

Row | SMILES | Selectivity eNOS/nNOS [1] | IC50 [2] | IC50 [1] | IC50 [3]
1 | CN1CCCC1CCN1C(=O)COc2cc(NC(=N)c3cccs3)ccc21 (stereo not shown) [Compound 1] | 41.9 |  |  | 
2 | CN1CCCC1CCN1CCOc2cc(NC(=N)c3cccs3)ccc21 (stereo not shown) [Compound 2] | 25.3 |  |  | 
3 | N=C(Nc1ccc2c(c1)OCC(=O)N2CCN1CCCC1)c1cccs1 [Compound 3, N-(3-oxo-4-(2-(pyrrolidin-1-yl)ethyl)-3,4-dihydro-2H-benzo[b][1,4]oxazin-7-yl)thiophene-2-carboximidamide] | 16.2 | 13.8 µM | 0.85 µM | 1.5 µM
4 | N=C(Nc1ccc2c(c1)OCCN2CCN1CCCC1)c1cccs1 [Compound 4, N-(4-(2-(pyrrolidin-1-yl)ethyl)-3,4-dihydro-2H-benzo[b][1,4]oxazin-7-yl)thiophene-2-carboximidamide] | 61.2 | 25.1 µM | 0.41 µM | 2.7 µM
5 | CN(C)CCN1C(=O)COc2cc(NC(=N)c3cccs3)ccc21 [Compound 5, N-(4-(2-(Dimethylamino)ethyl)-3-oxo-3,4-dihydro-2H-benzo[b][1,4]oxazin-7-yl)thiophene-2-carboximidamide] | 25.5 | 47 µM | 1.84 µM | > 100 µM
6 | CN(C)CCN1CCOc2cc(NC(=N)c3cccs3)ccc21 [Compound 6, N-(4-(2-(dimethylamino)ethyl)-3,4-dihydro-2H-benzo[b][1,4]oxazin-7-yl)thiophene-2-carboximidamide] | 208.5 | 41.7 µM | 0.2 µM | 10.9 µM
7 | CCNCCN1CCOc2cc(NC(=N)c3cccs3)ccc21 [Compound 7, N-(4-(2-(ethylamino)ethyl)-3,4-dihydro-2H-benzo[b][1,4]oxazin-7-yl)thiophene-2-carboximidamide dihydrochloride] | 9.8 | 10.4 µM | 1.06 µM | > 100 µM
8 | CN(C)CCN1CCOc2ccc(NC(=N)c3cccs3)cc21 [Compound 9, N-(4-(2-(dimethylamino)ethyl)-3,4-dihydro-2H-benzo[b][1,4]oxazin-6-yl)-thiophene-2-carboximidamide] | 182.5 | 36.5 µM | 0.2 µM | 7.25 µM
9 | CNCCN1CCOc2ccc(NC(=N)c3cccs3)cc21 [Compound 10, N-(4-(2-(methylamino)ethyl)-3,4-dihydro-2H-benzo[b][1,4]oxazin-6-yl)-thiophene-2-carboximidamide dihydrochloride] | 47.7 | 3.82 µM | 0.08 µM | 3.74 µM
10 | N=C(Nc1ccc2c(c1)SCCN2CCN1CCCC1)c1cccs1 [Compound 11, N-(4-(2-(pyrrolidin-1-yl)ethyl)-3,4-dihydro-2H-benzo[b][1,4]thiazin-7-yl)thiophene-2-carboximidamide] | 101.6 | 24.4 µM | 0.24 µM | 117 µM
11 | CN(C)CCN1CCSc2cc(NC(=N)c3cccs3)ccc21 [Compound 12, N-(4-(2-(Dimethylamino)ethyl)-3,4-dihydro-2H-benzo[b][1,4]thiazin-7-yl)thiophene-2-carboximidamide dihydrochloride] | 159.1 | 19.1 µM | 0.12 µM | 62.9 µM
12 | CN1CCCC1CCN1CCSc2cc(NC(=N)c3cccs3)ccc21 (stereo not shown) [Compound 13, N-(4-(2-(1-methylpyrrolidin-2-yl)ethyl)-3,4-dihydro-2H-benzo[b][1,4]thiazin-7-yl)thiophene-2-carboximidamide] | 52.2 | 9.92 µM | 0.19 µM | 33.1 µM
13 | N=C(Nc1ccc2c(c1)SCCN2CCN1CCCCC1)c1cccs1 [Compound 14, N-(4-(2-(Piperidin-1-yl)ethyl)-3,4-dihydro-2H-benzo[b][1,4]thiazin-7-yl)thiophene-2-carboximidamide] | 82.1 | 11.5 µM | 0.14 µM | 172 µM
